pIC50: −log10 of the molar value.
What was measured:
full length mouse TREX1 = target: T1, full length mouse TREX1 (Mus musculus, UniProt Q91XB0); assay: mTREX1 Biochemical Assay (fluorescence, dsDNA substrate degradation); settings: biochemical, read-out: mTREX1 IC50
T1 construct: N-terminally His-Tev tagged full length mouse TREX1; made in house; host or cells: E. coli
T1 sequence (Q91XB0 1-314): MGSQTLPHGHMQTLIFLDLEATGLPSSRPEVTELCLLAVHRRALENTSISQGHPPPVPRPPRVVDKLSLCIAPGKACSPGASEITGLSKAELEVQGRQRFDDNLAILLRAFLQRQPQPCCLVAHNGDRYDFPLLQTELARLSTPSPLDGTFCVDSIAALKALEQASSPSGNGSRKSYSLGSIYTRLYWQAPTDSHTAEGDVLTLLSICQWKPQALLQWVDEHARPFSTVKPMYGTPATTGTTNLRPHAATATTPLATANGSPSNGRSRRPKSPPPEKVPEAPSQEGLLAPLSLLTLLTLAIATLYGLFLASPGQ
Protocol: (§1) Degradation of the dsDNA liberates free fluorophore to produce a fluorescent signal. Specifically, 7.5 μL of N-terminally His-Tev tagged full length mouse TREX1 (expressed in E. coli and purified in house) in reaction buffer (50 mM Tris, 150 mM NaCl, 2 mM DTT, 0.1 mg/mL BSA, 0.01% (w/v) Tween-20, 5 mM MgCl2, pH 7.4) was added to a 384-well Black ProxiPlate Plus (PerkinElmer) which already contained compound (150 nL) at varying concentrations as a 10 point dose-response in DMSO. The plate was incubated at 25° C. for 4 hours. Reactions were initiated by adding 7.5 μL of dsDNA substrate (Strand A: 5′ TEX615/GCT AGG CAG 3′; Strand B: 5′ CTG CCT AGC/IAbRQSp (Integrated DNA Technologies)) in reaction buffer. Final concentrations were 6 pM TREX1, 60 nM dsDNA substrate in reaction buffer with 1.0% DMSO (v/v). After 18 hours at 25° C., reactions were quenched by the addition of 2 μL of 500 mM EDTA.

full length human TREX1 = target: T2, full length human TREX1 (Homo sapiens, UniProt Q9NSU2); assay: hTREX1 Biochemical Assay (fluorescence, dsDNA substrate degradation); settings: biochemical, read-out: hTREX1 IC50
T2 construct: N-terminally His-Tev tagged full length human TREX1; made in house; host or cells: E. coli
T2 sequence (Q9NSU2 1-314): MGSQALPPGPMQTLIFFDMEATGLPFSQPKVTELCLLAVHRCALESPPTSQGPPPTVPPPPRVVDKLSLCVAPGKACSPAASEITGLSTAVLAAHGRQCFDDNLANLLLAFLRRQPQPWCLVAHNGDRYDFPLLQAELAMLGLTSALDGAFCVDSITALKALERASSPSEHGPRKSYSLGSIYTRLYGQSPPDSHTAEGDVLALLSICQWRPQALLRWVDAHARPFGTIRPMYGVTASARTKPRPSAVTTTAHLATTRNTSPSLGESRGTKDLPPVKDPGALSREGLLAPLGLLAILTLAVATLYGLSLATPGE
Protocol: as §1, with “length human” for “length mouse”, “were 4” for “were 6”

pIC50 (full length mouse TREX1) | pIC50 (full length human TREX1) | SMILES
< 8.00 | < 8.00 | Cc1nn(C)c(C)c1C(c1ccccc1C#N)C(C)c1nc(C(=O)Nc2cnoc2)c(O)c(=O)n1C (single isomer, unassigned) [Example 78 D2E2]
< 8.00 | 8.00 to 9.00 | CC(c1nc(C(=O)Nc2cnoc2)c(O)c(=O)n1C)C(c1cnccn1)c1ccccc1C#N (single isomer, unassigned) [Example 66 D2E1]
< 8.00 | 8.00 to 9.00 | CCn1cc(C(c2ccccc2C#N)C(C)c2nc(C(=O)Nc3cnoc3)c(O)c(=O)n2C)c(C)n1 (single isomer, unassigned) [Example 70 D2E1]
< 8.00 | < 8.00 | COCCCn1cc(C(c2ccccc2C#N)C(C)c2nc(C(=O)Nc3cnoc3)c(O)c(=O)n2C)cn1 (single isomer, unassigned) [Example 24 D2E2]
< 8.00 | < 8.00 | CCn1cc(C(c2ccc(F)cc2C#N)C(C)c2nc(C(=O)Nc3cnoc3)c(O)c(=O)n2C)cn1 (single isomer, unassigned) [Example 16 D2E2]
< 8.00 | < 8.00 | Cc1c(C(c2ccccc2C#N)C(C)c2nc(C(=O)Nc3cnoc3)c(O)c(=O)n2C)cnn1C (single isomer, unassigned) [Example 4 D1E2]
< 8.00 | < 8.00 | CCn1cc(C(c2ccccc2C#N)C(C)c2nc(C(=O)Nc3cnoc3)c(O)c(=O)n2C)c(C)n1 (single isomer, unassigned) [Example 70 D2E2]
< 8.00 | < 8.00 | CC(c1nc(C(=O)Nc2cnoc2)c(O)c(=O)n1C)C(c1cnn(CCN2CCNCC2)c1)c1ccccc1C#N (single isomer, unassigned) [Example 31 D2E1]
< 8.00 | < 8.00 | CC(c1nc(C(=O)Nc2cnoc2)c(O)c(=O)n1C)C(c1cnn(C)c1)c1cc(C(F)(F)F)ccc1C#N (single isomer, unassigned) [Example 29 D2E2]
< 8.00 | < 8.00 | CC(c1nc(C(=O)Nc2cnoc2)c(O)c(=O)n1C)C(c1cnn(C)c1)c1cc(F)c(F)cc1Cl (single isomer, unassigned) [Example 28 D1E2]
< 8.00 | < 8.00 | CC(c1nc(C(=O)Nc2cnoc2)c(O)c(=O)n1C)C(c1cnn(C)c1)c1ccc(C(=O)N(C)C)cc1C#N (single isomer, unassigned) [Example 11 D2E2]
< 8.00 | < 8.00 | CC(c1nc(C(=O)Nc2cnoc2)c(O)c(=O)n1C)C(c1cnn(C)c1)c1cc(F)c(F)cc1C#N (single isomer, unassigned) [Example 25 D2E1]
< 8.00 | < 8.00 | COC(C)(C)Cn1cc(C(c2ccccc2C#N)C(C)c2nc(C(=O)Nc3cnoc3)c(O)c(=O)n2C)cn1 (single isomer, unassigned) [Example 37 D2E1]
< 8.00 | < 8.00 | Cc1cn(C)nc1C(c1ccccc1C#N)C(C)c1nc(C(=O)Nc2cnoc2)c(O)c(=O)n1C (single isomer, unassigned) [Example 64 D2E2]
< 8.00 | < 8.00 | CCn1cc(C(c2cc(F)c(F)cc2Cl)C(C)c2nc(C(=O)Nc3cnoc3)c(O)c(=O)n2C)cn1 (single isomer, unassigned) [Example 72 D1E2]
< 8.00 | < 8.00 | CC(c1nc(C(=O)Nc2cnoc2)c(O)c(=O)n1C)C(c1ncn(C)n1)c1ccccc1C#N (single isomer, unassigned) [Example 51 D2E1]
< 8.00 | < 8.00 | Cc1cc(C(c2ccccc2C#N)C(C)c2nc(C(=O)Nc3cnoc3)c(O)c(=O)n2C)n(C)n1 (single isomer, unassigned) [Example 63 D2E1]
< 8.00 | < 8.00 | COCCn1cc(C(c2ccccc2C#N)C(C)c2nc(C(=O)Nc3cnoc3)c(O)c(=O)n2C)c(C)n1 (single isomer, unassigned) [Example 71 D2E1]

pIC50 (full length mouse TREX1) | pIC50 (full length human TREX1) | SMILES
< 8.00 | < 8.00 | CC(c1nc(C(=O)Nc2cnoc2)c(O)c(=O)n1C)C(c1cnn(C)c1)c1cc(F)ccc1Cl (single isomer, unassigned) [Example 61 D2E2]
< 8.00 | < 8.00 | CC(c1nc(C(=O)Nc2cnoc2)c(O)c(=O)n1C)C(c1cnn(C)c1)c1cc(C(F)(F)F)ccc1C#N (single isomer, unassigned) [Example 29 D1E2]
< 8.00 | < 8.00 | CC(c1nc(C(=O)Nc2cnoc2)c(O)c(=O)n1C)C(c1cnn(C)c1)c1ccc(O)cc1C#N (single isomer, unassigned) [Example 80 D2E1]
< 8.00 | < 8.00 | COCCn1cc(C(c2cc(F)ccc2C#N)C(C)c2nc(C(=O)Nc3cnoc3)c(O)c(=O)n2C)cn1 (single isomer, unassigned) [Example 18 D1E1]
< 8.00 | < 8.00 | Cc1nn(C)cc1C(c1cc(F)ccc1C#N)C(C)c1nc(C(=O)Nc2cnoc2)c(O)c(=O)n1C (single isomer, unassigned) [Example 57 D2E2]
< 8.00 | < 8.00 | CC(c1nc(C(=O)Nc2cnoc2)c(O)c(=O)n1C)C(c1cnn(CC(F)(F)F)c1)c1ccccc1C#N (single isomer, unassigned) [Example 22 D1E2]
< 8.00 | < 8.00 | COCCn1cc(C(c2cc(F)c(F)cc2Cl)C(C)c2nc(C(=O)Nc3cnoc3)c(O)c(=O)n2C)cn1 (single isomer, unassigned) [Example 73 D2E2]
< 8.00 | < 8.00 | Cc1cncc(C(c2ccccc2C#N)C(C)c2nc(C(=O)Nc3cnoc3)c(O)c(=O)n2C)n1 (single isomer, unassigned) [Example 53 D2E1]
< 8.00 | < 8.00 | CC(c1nc(C(=O)Nc2cnoc2)c(O)c(=O)n1C)C(c1cnn(CC(C)(C)O)c1)c1ccccc1C#N (single isomer, unassigned) [Example 36 D2E2]
< 8.00 | < 8.00 | CC(c1nc(C(=O)Nc2cnoc2)c(O)c(=O)n1C)C(c1cnn(CCN2CCNCC2)c1)c1ccccc1C#N (single isomer, unassigned) [Example 31 D2E2]
< 8.00 | < 8.00 | CC(c1nc(C(=O)Nc2cnoc2)c(O)c(=O)n1C)C(c1cnn(C)c1)c1cc(C(F)(F)F)ccc1C#N (single isomer, unassigned) [Example 29 D2E1]
< 8.00 | < 8.00 | CC(c1nc(C(=O)Nc2cnoc2)c(O)c(=O)n1C)C(c1cnn(C)c1)c1cc(Cl)ccc1C#N (single isomer, unassigned) [Example 26 D2E2]
< 8.00 | < 8.00 | Cc1nn(C)cc1C(c1cc(F)ccc1C#N)C(c1nc(C(=O)Nc2cnoc2)c(O)c(=O)n1C)C(F)(F)F (single isomer, unassigned) [Example 42 D2E2]
< 8.00 | < 8.00 | CC(c1nc(C(=O)Nc2cnoc2)c(O)c(=O)n1C)C(c1cnn(C)c1)c1ccc(C(F)(F)F)cc1C#N (single isomer, unassigned) [Example 30 D2E2]
< 8.00 | < 8.00 | Cc1ccn(C(c2ccccc2Cl)C(C)c2nc(C(=O)Nc3cnoc3)c(O)c(=O)n2C)n1 (single isomer, unassigned) [Example 49 D1E2]
< 8.00 | < 8.00 | CC(c1nc(C(=O)Nc2cnoc2)c(O)c(=O)n1C)C(c1cocn1)c1ccccc1C#N (single isomer, unassigned) [Example 50 D2E2]
< 8.00 | < 8.00 | CC(c1nc(C(=O)Nc2cnoc2)c(O)c(=O)n1C)C(c1cn(C)cn1)c1ccccc1C#N (single isomer, unassigned) [Example 39 D1E2]
